Experiment [1] addresses T1, mTORC1 (Homo sapiens) (UniProt P42345+Q8N122+Q9BVC4). Nature of the experiment: Inhibition of mTORC1 in human LY7 cells assessed as reduction in 4E-BP1 phosphorylation at 3 uM measured after 24 hrs in presence of bortezomib by Western blot analysis. The class given is cell-based. For orientation: Immunoblotting shows a protein as a band on a membrane.
For experiment [2], the system named is OCI-Ly10. The experiment is described as follows: Induction of apoptosis in human LY10 cells assessed as increase in cleaved-PARP expression at 3 uM measured after 24 hrs in presence of bortezomib by Western blot analysis. Format: functional, cell-based.
The test system of a further experiment is PF-382. The experiment is described as follows: Induction of apoptosis in human PF-382 cells assessed as increase in cleaved-PARP expression at 5 uM measured after 24 hrs in presence of bortezomib by Western blot analysis. The class given is functional, cell-based.
For experiment [3], the system named is OCI-Ly10. Nature of the experiment: Induction of apoptosis in human LY10 cells assessed as increase in caspase-3/7 activation at 1 to 3 uM measured after 24 hrs in presence of bortezomib. The class given is functional, cell-based. As to conditions: dose 1-3 µM.
Experiment [4] deals with Myc proto-oncogene protein (Homo sapiens) (UniProt P01106). The experiment is described as follows: Inhibition of c-Myc in human LY10 cells assessed as reduction in E2F1 expression at 3 uM incubated for 24 hrs in presence of bortezomib by Western blot analysis. Format: cell-based.
Experiment [5] has the same target. Nature of the experiment: Inhibition of c-Myc in human LY7 cells assessed as reduction in eIF4B expression at 3 uM incubated for 24 hrs in presence of bortezomib by Western blot analysis. Format: cell-based.
In experiment [6] the target is T2, Casein kinase I isoform epsilon (Homo sapiens, UniProt P49674). Nature of the experiment: Inhibition of recombinant human full-length N-terminal GST-tagged CK1epsilon expressed in baculovirus infected Sf9 insect cells at 50 uM using casein as substrate measured after 60 mins by ADP-glo kinase assay relative to control. In general terms: ADP-Glo first removes unused ATP, then detects ADP through luciferase.
Target sequence in this assay (P49674 whole entry, looked up, canonical isoform): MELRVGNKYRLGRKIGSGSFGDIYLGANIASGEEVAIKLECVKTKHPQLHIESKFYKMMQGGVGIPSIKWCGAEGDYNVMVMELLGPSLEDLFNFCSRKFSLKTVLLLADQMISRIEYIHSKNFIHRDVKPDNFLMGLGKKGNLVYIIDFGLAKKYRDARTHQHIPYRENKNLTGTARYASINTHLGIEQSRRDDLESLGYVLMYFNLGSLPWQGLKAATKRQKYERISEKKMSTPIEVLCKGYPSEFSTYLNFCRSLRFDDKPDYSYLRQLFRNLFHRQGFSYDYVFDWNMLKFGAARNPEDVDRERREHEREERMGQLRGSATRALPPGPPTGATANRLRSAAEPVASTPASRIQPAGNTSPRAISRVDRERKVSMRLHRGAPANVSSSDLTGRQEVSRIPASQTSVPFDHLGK

In experiment [7] the target is T1, mTORC1 (Homo sapiens). The experiment is described as follows: Inhibition of mTORC1 in human NCI-H929 cells assessed as reduction in c-Myc expression at 5 uM measured after 24 hrs in presence of carfilzomib by Western blot analysis. The class given is cell-based.
Experiment [8] concerns the target T1, mTORC1 (Homo sapiens). The experiment is described as follows: Inhibition of mTORC1 in human CLL cells assessed as reduction in 4E-BP1 phosphorylation at 5 uM measured after 24 hrs in presence of carfilzomib by Western blot analysis. Format: cell-based. As to conditions: CLL cell.
Experiment [9] concerns the target T1, mTORC1 (Homo sapiens). The experiment is described as follows: Inhibition of mTORC1 in human NCI-H929 cells assessed as reduction in 4E-BP1 phosphorylation at 5 uM measured after 24 hrs in presence of carfilzomib by Western blot analysis. The class given is cell-based.
For experiment [10], the target named is T1, mTORC1 (Homo sapiens). The experiment is described as follows: Inhibition of mTORC1 in human PF-382 cells assessed as reduction in 4E-BP1 phosphorylation at 5 uM measured after 24 hrs in presence of carfilzomib by Western blot analysis. Format: cell-based.
The target of experiment [11] is T1, mTORC1 (Homo sapiens). The experiment is described as follows: Inhibition of mTORC1 in human LY7 cells assessed as reduction in 4E-BP1 phosphorylation at 3 uM measured after 24 hrs in presence of carfilzomib by Western blot analysis. Format: cell-based.
Experiment [12] has as its target T1, mTORC1 (Homo sapiens). The experiment is described as follows: Inhibition of mTORC1 in human LY10 cells assessed as reduction in 4E-BP1 phosphorylation at 3 uM measured after 24 hrs in presence of carfilzomib by Western blot analysis. Format: cell-based.
Experiment [13] deals with T3, Phosphatidylinositol 4,5-bisphosphate 3-kinase catalytic subunit delta isoform (Homo sapiens) (UniProt O00329).
T3 sequence (whole entry): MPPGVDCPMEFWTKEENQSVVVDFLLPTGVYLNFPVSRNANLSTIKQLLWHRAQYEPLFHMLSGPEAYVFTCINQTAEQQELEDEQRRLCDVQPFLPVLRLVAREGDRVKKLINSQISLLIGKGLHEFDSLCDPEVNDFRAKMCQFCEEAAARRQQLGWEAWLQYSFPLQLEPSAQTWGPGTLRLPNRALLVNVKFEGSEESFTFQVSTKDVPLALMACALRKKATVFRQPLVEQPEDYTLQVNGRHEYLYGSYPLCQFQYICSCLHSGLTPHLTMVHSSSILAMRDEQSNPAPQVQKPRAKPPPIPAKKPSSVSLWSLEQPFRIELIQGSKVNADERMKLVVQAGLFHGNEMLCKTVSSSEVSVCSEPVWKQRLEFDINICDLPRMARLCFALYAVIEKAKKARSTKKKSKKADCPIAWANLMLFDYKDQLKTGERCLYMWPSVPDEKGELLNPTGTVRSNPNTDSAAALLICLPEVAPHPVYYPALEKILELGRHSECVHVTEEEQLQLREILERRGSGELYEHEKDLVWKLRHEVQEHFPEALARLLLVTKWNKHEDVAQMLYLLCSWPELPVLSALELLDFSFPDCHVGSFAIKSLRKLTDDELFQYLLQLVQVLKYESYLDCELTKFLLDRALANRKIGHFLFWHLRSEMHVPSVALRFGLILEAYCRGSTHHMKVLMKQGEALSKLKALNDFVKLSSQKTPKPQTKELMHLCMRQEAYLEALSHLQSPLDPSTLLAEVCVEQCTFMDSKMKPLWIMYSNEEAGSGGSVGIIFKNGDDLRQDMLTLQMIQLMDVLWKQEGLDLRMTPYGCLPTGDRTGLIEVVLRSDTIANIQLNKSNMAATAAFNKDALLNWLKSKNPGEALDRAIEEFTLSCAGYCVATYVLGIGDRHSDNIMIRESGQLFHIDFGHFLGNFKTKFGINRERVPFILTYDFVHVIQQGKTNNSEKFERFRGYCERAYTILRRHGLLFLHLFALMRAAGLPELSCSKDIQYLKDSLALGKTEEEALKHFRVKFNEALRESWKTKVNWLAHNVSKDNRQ
The experiment is described as follows: Inhibition of PI3Kdelta in human HL-60 cells assessed as reduction in AKT phosphorylation at S473 residue measured after 4 hrs. The class given is cell-based. As to conditions: dose 10-10000 nM.

Experiment [14] deals with T3, Phosphatidylinositol 4,5-bisphosphate 3-kinase catalytic subunit delta isoform (Homo sapiens). The experiment is described as follows: Inhibition of PI3Kdelta in human Jurkat cells assessed as reduction in AKT phosphorylation at S473 residue measured after 4 hrs. Format: cell-based. To be noted: dose 10-10000 nM.
For experiment [15] the target is unchanged. The experiment is described as follows: Inhibition of PI3Kdelta in human DB cells assessed as reduction in AKT phosphorylation at S473 residue at 1 uM measured after 4 hrs relative to control. Format: cell-based.
A further experiment concerns MOLT-4. The experiment is described as follows: Antitumor activity against human MOLT-4 cells xenografted in NOD/SCID mouse assessed as reduction in tumor volume at 150 mg/kg, po administered daily for 25 days measured at 2 to 3 times per week during compound dosing by caliper method. The class given is functional, organism-based. As to conditions: time 25.0 day.
Experiment [16] addresses T1, mTORC1 (Homo sapiens). Nature of the experiment: Inhibition of mTORC1 in human OCILY7 cells transfected with c-myc-5'-UTR-luciferase construct assessed as reduction in c-myc translation at 3 to 5 uM incubated for 24 hrs in presence of carfilzomib by luciferase reporter gene assay. Format: cell-based. As to conditions: dose 3-5 µM.
In experiment [17] the target is Myc proto-oncogene protein (Homo sapiens) (UniProt P01106). The experiment is described as follows: Inhibition of c-Myc in human LY7 cells assessed as reduction in eIF4B expression at 3 uM incubated for 24 hrs in presence of carfilzomib by Western blot analysis. Format: cell-based.
Experiment [18] has as its target T2, Casein kinase I isoform epsilon. The experiment is described as follows: Inhibition of recombinant human full-length N-terminal GST-tagged CK1epsilon expressed in baculovirus infected Sf9 insect cells using casein as substrate measured after 60 mins by ADP-glo kinase assay.
Target sequence in this assay (P49674 whole entry, canonical isoform): as the sequence (P49674 whole entry, looked up, canonical isoform) above
The next experiment has as its system OCI-Ly7. The experiment is described as follows: Cytotoxicity against human OCILY7 cells transfected with c-Myc-expressing plasmid (M+) assessed as reduction in cell viability at 7.5 to 25 uM incubated for 24 hrs by cell-titer glo assay. The class given is functional, cell-based. To be noted: dose 7.5-25 µM.

This note sets out measurements from ChEMBL document CHEMBL5715954, “Silencing c-Myc translation as a therapeutic strategy through targeting PI3Kδ and CK1ε in hematological malignancies” (Blood, 2017).

The source made the active and inactive calls. The calls are words filed in the database; no cut-off is given here.

T1 sequence (Q8N122 whole entry, looked up, other chains not shown): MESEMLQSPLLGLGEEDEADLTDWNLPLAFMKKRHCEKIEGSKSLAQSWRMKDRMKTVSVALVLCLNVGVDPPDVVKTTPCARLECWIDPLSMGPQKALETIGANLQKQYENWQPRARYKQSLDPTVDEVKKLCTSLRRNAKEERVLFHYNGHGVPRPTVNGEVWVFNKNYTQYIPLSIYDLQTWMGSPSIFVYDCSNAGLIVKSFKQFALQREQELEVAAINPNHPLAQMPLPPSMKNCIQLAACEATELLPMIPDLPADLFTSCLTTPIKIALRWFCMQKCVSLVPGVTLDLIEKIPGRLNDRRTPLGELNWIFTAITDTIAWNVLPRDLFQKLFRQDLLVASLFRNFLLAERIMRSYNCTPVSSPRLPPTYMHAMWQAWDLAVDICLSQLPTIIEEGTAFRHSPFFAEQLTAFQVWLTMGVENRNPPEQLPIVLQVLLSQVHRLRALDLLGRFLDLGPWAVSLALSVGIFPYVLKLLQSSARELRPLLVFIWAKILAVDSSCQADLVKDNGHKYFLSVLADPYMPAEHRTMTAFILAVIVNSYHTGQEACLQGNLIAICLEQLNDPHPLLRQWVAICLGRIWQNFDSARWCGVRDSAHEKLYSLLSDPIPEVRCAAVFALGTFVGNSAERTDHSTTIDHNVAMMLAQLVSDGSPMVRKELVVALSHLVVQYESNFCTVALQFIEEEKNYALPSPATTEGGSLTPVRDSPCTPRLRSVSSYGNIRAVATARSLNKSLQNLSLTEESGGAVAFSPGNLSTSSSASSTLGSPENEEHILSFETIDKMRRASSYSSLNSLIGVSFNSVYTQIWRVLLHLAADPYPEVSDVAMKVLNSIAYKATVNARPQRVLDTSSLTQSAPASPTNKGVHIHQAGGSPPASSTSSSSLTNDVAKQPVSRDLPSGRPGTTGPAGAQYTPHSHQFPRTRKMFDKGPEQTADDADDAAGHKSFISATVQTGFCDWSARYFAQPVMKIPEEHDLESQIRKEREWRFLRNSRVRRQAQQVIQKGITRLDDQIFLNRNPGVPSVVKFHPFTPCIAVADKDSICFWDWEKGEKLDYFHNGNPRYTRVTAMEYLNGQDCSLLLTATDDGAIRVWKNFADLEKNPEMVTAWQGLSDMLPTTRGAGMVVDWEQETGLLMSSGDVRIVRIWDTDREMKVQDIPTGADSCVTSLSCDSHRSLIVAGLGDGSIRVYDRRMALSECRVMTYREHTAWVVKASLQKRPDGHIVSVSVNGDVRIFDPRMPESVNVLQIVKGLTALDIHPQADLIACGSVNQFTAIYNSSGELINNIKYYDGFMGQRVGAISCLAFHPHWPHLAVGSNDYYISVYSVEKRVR
T1 sequence (Q9BVC4 whole entry, looked up, other chains not shown): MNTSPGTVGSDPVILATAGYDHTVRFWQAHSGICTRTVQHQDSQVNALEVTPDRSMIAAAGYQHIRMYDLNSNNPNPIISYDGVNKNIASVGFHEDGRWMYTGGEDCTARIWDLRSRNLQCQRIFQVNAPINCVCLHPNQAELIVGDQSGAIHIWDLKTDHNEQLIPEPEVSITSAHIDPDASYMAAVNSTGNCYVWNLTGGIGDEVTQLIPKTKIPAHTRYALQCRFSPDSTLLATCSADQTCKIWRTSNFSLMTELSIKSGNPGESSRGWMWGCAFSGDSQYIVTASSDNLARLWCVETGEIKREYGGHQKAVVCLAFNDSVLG
Chain of Myc proto-oncogene protein (Homo sapiens) (P01106 whole entry, canonical isoform): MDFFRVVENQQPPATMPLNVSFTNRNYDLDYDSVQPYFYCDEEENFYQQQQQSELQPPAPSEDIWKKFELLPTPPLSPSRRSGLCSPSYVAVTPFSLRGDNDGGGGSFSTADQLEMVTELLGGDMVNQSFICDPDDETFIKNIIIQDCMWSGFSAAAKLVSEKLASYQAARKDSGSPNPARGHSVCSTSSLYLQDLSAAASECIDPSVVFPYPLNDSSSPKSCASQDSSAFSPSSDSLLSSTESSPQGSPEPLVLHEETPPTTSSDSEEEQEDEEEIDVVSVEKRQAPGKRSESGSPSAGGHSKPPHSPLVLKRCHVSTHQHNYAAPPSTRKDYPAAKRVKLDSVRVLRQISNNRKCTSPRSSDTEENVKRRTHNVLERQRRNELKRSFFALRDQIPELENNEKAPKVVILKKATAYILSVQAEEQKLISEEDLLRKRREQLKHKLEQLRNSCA

On to `CC[C@H](Nc1ncnc2[nH]cnc12)c1nc2cccc(F)c2c(=O)n1-c1ccccc1`, for which the inhibition entry (on mTORC1 (Homo sapiens) [1]; in [4]; in experiment [5]) was “inactive” in each case. Moreover, the result in the experiment on OCI-Ly10 [2], in the experiment with PF-382 and with OCI-Ly10 [3] was Active. In addition, the inhibition in experiment [6] was less than 50%.
On to `CC(C)Oc1ccc(-c2nn([C@@H](C)c3oc4ccc(F)cc4c(=O)c3-c3cccc(F)c3)c3ncnc(N)c23)cc1F` [UMBRALISIB], for which the inhibition result on mTORC1 (Homo sapiens) [7], on mTORC1 (Homo sapiens) [8], on mTORC1 (Homo sapiens) [9], at mTORC1 (Homo sapiens) [10], at mTORC1 (Homo sapiens) [11] and on mTORC1 (Homo sapiens) [12] was “Active” in each case. Also, the inhibition result (on mTORC1 (Homo sapiens) [16]; in experiment [17]) was “Active” throughout. For the same compound, the inhibition result was “Dose-Dependent Effect” in experiment [13], “Dose-Dependent Effect” in experiment [14] and 43% in [15]. Moreover, the result with MOLT-4 was Active. Moreover, the concentration giving a half-maximal response (EC50) in experiment [18] turned out to be 6 µM. Besides, the result in the experiment with OCI-Ly7 was inactive.

In general, inhibition refers to the share of the control response that was lost under treatment. As usually defined, the EC50 is the midpoint of the concentration-response curve.
